In patent US10399932B2, “Inhibitors of indoleamine-2,3-dioxygenase for the treatment of cancer” (BRISTOL-MYERS SQUIBB COMPANY, priority 2015, dated 2019):

biological target: human IDO1 (Homo sapiens, UniProt P14902); assay: Assessment of human IDO-1 inhibitory activity in Hela cells (Interferon-gamma activated, Ehrlich reagent, absorbance at 490 nm); format: cell-based; design: endogenous in cells; host or cells: HeLa cells stimulated with interferon-gamma; details: 18 hours
How it was run: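 HeLa cells were preincubated with compound for 1 h at 37 °C, then stimulated with human IFN-γ (10 ng/ml final) or murine IFN-γ (5 ng/ml final) for 18 h. Kynurenine was read after TCA (3% final, 50 °C for 30 min) and Ehrlich reagent at A490. For IC50, unstimulated wells were set as 100% inhibition and IFN-γ alone as 0%.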

human IDO1, sequence (P14902 whole entry): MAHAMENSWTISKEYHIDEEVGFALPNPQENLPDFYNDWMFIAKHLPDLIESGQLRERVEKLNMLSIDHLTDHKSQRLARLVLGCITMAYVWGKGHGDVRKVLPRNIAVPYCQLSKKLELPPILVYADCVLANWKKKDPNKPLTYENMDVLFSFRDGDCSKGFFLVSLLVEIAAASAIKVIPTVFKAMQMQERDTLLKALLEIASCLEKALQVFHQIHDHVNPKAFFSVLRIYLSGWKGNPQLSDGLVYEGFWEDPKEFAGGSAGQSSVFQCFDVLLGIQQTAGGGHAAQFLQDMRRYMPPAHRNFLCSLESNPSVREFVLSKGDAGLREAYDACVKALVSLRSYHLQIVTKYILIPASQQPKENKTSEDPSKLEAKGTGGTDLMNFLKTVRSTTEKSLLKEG

IC50 [nM]	Molecule
> 50	CCN(c1ccc(C(C)CC(=O)O)cc1Nc1cnc(OC(C)C)nc1)C1CCOCC1 (single isomer, unassigned) [Example 635, 3-(4-(ethyl(tetrahydro-2H-pyran-4-yl)amino)-3-((2-isopropoxypyrimidin-5-yl)amino)phenyl)butanoic acid]
< 50	3-(5-((4-chlorophenyl) amino)-4-(ethyl(tetrahydro- 2H-pyran-4-yl)amino)-2- fluorophenyl)-4- methoxybutanoic acid [Example 852]
> 50	(R)-3-(4-((1,1-dioxidotetrahydro-2H-thiopyran-4-yl)(ethyl)amino)-3-((2-ethoxypyrimidin-5-yl)amino)phenyl)-4-isopropoxybutanoic acid [Example 333]
< 50	CCc1ccc(Nc2cc(C(COC)CC(=O)O)cc(F)c2N(CC(C)C)CC(C)C)cc1 (single isomer, unassigned) [Example 926, 3-(4-(diisobutylamino)-3-((4-ethylphenyl)amino)-5-fluorophenyl)-4-methoxybutanoic acid.]
< 50	CCOc1ncc(Nc2cc(C(CC)CC(=O)O)ccc2N(CC)C2CCOC2)cn1 (single isomer, unassigned) [947 D2]
< 50	CCC(CC(=O)O)c1ccc(N(CCOC)C2CCOCC2)c(Nc2cnc(OC)nc2)c1 (single isomer, unassigned) [Example 1262, 3-(4-((2-methoxyethyl)(tetrahydro-2H-pyran-4-yl)amino)-3-((2-methoxypyrimidin-5-yl)amino)phenyl)pentanoic acid]
> 50	COCC(CC(=O)OC)c1ccc(N(CC(F)F)C2CCOCC2)c(Nc2ccc(Cl)cc2)c1 (stereo not drawn) [Example 320, methyl 3-(3-((4-chloro-phenyl)amino)-4-((2,2-difluoroethyl) (tetrahydro-2H-pyran-4-yl)amino)phenyl)-4-methoxy-butanoate]
< 50	CCOc1ncc(Nc2cc(C(CC)CC(=O)O)ccc2N(CC)C2CCOC2)cn1 (single isomer, unassigned) [947 D1]
> 50	COCC(CC(=O)O)c1ccc(N2CCOC(C)(C)C2)c(Nc2ccc(C#N)cc2)c1 (single isomer, unassigned) [Example 1317]
< 5	CCCN(c1ccc(C(CC)CC(=O)O)cc1Nc1ccc(C#N)cc1)C1CCS(=O)(=O)CC1 (single isomer, unassigned) [Example 12 Enantiomer 2, 3-(3-((4-Cyanophenyl)amino)-4-((1,1-dioxidotetrahydro-2H-thiopyran-4-yl)(propyl)amino)phenyl)pentanoic acid]
< 5	COCC(CC(=O)O)c1ccc(N(CC(F)F)C2CCOCC2)c(Nc2ccc(C#N)cc2)c1 (single isomer, unassigned) [Example 323]
< 5	CC[C@@H](CC(=O)O)c1ccc(N(CC)C2CCOCC2)c(Nc2ccc(Cl)cn2)c1 (single isomer, unassigned) [Example 460]
< 5	COCC(CC(=O)O)c1ccc(N(CC(F)F)C2CCOCC2)c(Nc2ccc(Cl)cc2)c1 (single isomer, unassigned) [Example 321 Enantiomer 2, 3-(3-((4-Chlorophenyl)amino)-4-((2,2-difluoroethyl)(tetrahydro-2H-pyran-4-yl)amino)phenyl)-4-methoxybutanoic acid]
< 50	CCN(c1cc(F)c(C(COC)CC(=O)O)cc1Nc1ccc(Cl)cc1)C1CCOCC1 (stereo not drawn) [Example 845, 3-(5-((4-chlorophenyl)amino)-4-(ethyl(tetrahydro-2H-pyran-4-yl)amino)-2-fluorophenyl)-4-methoxybutanoic acid]
< 5	CCN(c1cc(F)c([C@@H](COC)CC(=O)O)cc1Nc1ccc(Cl)cc1)C1CCOCC1 (stereo in doubt) [Example 851, 3-(5-((4-chlorophenyl)amino)-4-(ethyl(tetrahydro-2H-pyran-4-yl)amino)-2-fluorophenyl)-4-methoxybutanoic acid]
< 5	CCC(CC(=O)O)c1cc(Nc2ccc(Cl)cc2)c(N(CC)C2CCOCC2)cc1F (single isomer, unassigned) [Example 861, 3-(5-((4-Chlorophenyl)amino)-4-(ethyl(tetrahydro-2H-pyran-4-yl)amino)-2-fluorophenyl)pentanoic acid]
< 50	C[C@@H]1CN(c2ccc(C(CC(=O)O)C3CC3)cc2Nc2ccc(Cl)cc2)C[C@H](C)O1 (single isomer, unassigned) [Example 248]
> 50	CCOc1ncc(Nc2cc(C(CC)CC(=O)O)ccc2N2CCN(C(=O)OC)CC2)cn1 (single isomer, unassigned) [Example 670, 3-(3-((2-Ethoxypyrimidin-5-yl)amino)-4-(4-(methoxycarbonyl)piperazin-1-yl)phenyl)pentanoic acid]
< 5	CC(CC(=O)O)c1ccc(N(CC(C)(C)O)C2CCCCC2)c(Nc2ccc(Cl)cc2)c1 (single isomer, unassigned) [Example 48 Enantiomer 2, 3-(3-((4-Chlorophenyl)amino)-4-(cyclohexyl(2-hydroxy-2-methylpropyl)amino)phenyl)butanoic acid]
> 50	CCC(CC(=O)O)c1ccc(N2CCC(C)CC2)c(Nc2cnc(OC)nc2)c1 (single isomer, unassigned) [Example 44, 3-(3-((2-methoxypyrimidin-5-yl)amino)-4-(4-methylpiperidin-1-yl)phenyl) pentanoic acid]
> 50	Cc1ccc(NC(=O)Nc2cc(C(C)CC(=O)O)ccc2N2C[C@@H](C)O[C@@H](C)C2)cc1 (single isomer, unassigned) [Example 753]
< 50	CCOc1ncc(Nc2cc(C(CC)CC(=O)O)ccc2N(CCOC)C2CCOCC2)cn1 (single isomer, unassigned) [Example 1263, 3-(3-((2-ethoxypyrimidin-5-yl)amino)-4-((2-methoxyethyl)(tetrahydro-2H-pyran-4-yl)amino)phenyl)pentanoic acid]
< 5	CCC(CC(=O)O)c1ccc(N(CC(F)F)C2CCOCC2)c(Nc2ccc(Cl)cc2)c1 (single isomer, unassigned) [Example 318 Enantiomer 2, 3-(3-((4-Chlorophenyl)amino)-4-((2,2-difluoroethyl)(tetrahydro-2H-pyran-4-yl)amino)phenyl)pentanoic acid]
< 5	COCC(CC(=O)O)c1ccc(N2CCC(c3ccccc3)CC2)c(Nc2ccc(C#N)cc2)c1 (single isomer, unassigned) [Example 1350 E2, 3-(3-((4-Cyanophenyl)amino)-4-(4-phenylpiperidin-1-yl)phenyl)-4-methoxybutanoic acid]
